For assay [1], the target named is T1, human recombinant bradykinin B1 receptor (Homo sapiens, UniProt P46663).
T1 construct: host or cells: CHO cells, clone hB1-A5
T1 sequence (P46663 1-353): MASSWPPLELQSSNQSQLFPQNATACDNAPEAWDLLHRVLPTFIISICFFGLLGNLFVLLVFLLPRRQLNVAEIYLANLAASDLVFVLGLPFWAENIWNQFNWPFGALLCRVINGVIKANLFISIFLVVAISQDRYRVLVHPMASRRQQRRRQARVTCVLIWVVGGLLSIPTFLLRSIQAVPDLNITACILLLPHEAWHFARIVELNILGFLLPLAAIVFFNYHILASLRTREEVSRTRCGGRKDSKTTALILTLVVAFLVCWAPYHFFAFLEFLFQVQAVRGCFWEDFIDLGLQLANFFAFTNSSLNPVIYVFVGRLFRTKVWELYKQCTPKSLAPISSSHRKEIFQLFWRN
Description: Human recombinant bradykinin B1 receptor competitive radioligand binding. The conditions noted are these: hB1 expressed in CHO cells, [3H]-[Des-Arg10] Kallidin radioligand; read-out: B1 binding. In a few lines:
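Membranes from CHO cells expressing hB1 (20 μg protein/tube) incubated 15 min at 25° C. with [3,4-prolyl-3,4-^3H(N)]-[Des-Arg^10] Kallidin; nonspecific binding defined with 10 μM Lys-des-Arg^9-Bradykinin. Bound label collected by filtration and counted. IC50 from ≥7-point curves in triplicate; Ki by Cheng-Prusoff.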

Assay [2] has as its target T2, recombinant human B1 receptors (Homo sapiens, UniProt P46663).
T2 construct: host or cells: CHO (CHO-B1)
T2 sequence (P46663 1-353): T1 sequence (P46663 1-353)
Put plainly: Functional assay: antagonist potency by cytosolic calcium measurement (plate reader fluorimeter) in CHO-B1 cells, agonist LysDABK. The format is cell-based. The note with it: CHO-B1 cells, inhibition of LysDABK (EC80)-evoked [Ca2+]i elevation; read-out: B1 func. The method, boiled down:
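IC50 is the concentration giving half-maximal inhibition of the LysDABK (EC80) calcium response, fitted from at least three experiments. CHO cells stably expressing human B1 were dye-loaded, exposed to compound for 20-25 min, then read by fluo-4 fluorescence (ΔF/F) at 37 °C.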

`Cc1nc(-c2c(Cl)c3cc(Cl)ccc3n2-c2ccc(CNC(=O)C3(NC(=O)c4cccc(F)c4)CC3)cc2)no1` [Example 71, N-(1-{4-[3,5-Dichloro-2-(5-methyl-[1,2,4]oxadiazol-3-yl)-indol-1-yl]-benzylcarbamoyl}-cyclopropyl)-3-fluoro-benzamide]: the Ki in assay [1] is below 20 nM. The IC50 in assay [2] was below 20 nM.
Turning to `Cc1cnc(C(=O)NC2(C(=O)NCc3ccc(-n4c(-c5noc(C)n5)c(Cl)c5cc(Cl)ccc54)cc3)CC2)cn1` [Example 72, 5-Methyl-pyrazine-2-carboxylic acid (1-{4-[3,5-dichloro-2-(5-methyl-[1,2,4]oxadiazol-3-yl)-indol-1-yl]-benzylcarbamoyl}-cyclopropyl)-amide], the Ki in assay [1] is below 20 nM. The IC50 in assay [2] is below 20 nM.
Consider `Cc1cc(C(=O)NC2(C(=O)NCc3ccc(-n4c(-c5noc(C)n5)c(Cl)c5cc(Cl)ccc54)cc3)CC2)no1` [Example 73, 5-Methyl-isoxazole-3-carboxylic acid (1-{4-[3,5-dichloro-2-(5-methyl-[1,2,4]oxadiazol-3-yl)-indol-1-yl]-benzylcarbamoyl}-cyclopropyl)-amide], for which the Ki in assay [1] is below 20 nM. For the same compound, the IC50 in assay [2] was below 20 nM.
Consider `Cc1nc(-c2c(Cl)c3cc(Cl)ccc3n2-c2ccc(CNC(=O)C3(NC(=O)c4ccnc(F)c4)CC3)cc2)no1` [Example 74, N-(1-{4-[3,5-Dichloro-2-(5-methyl-[1,2,4]oxadiazol-3-yl)-indol-1-yl]-benzylcarbamoyl}-cyclopropyl)-2-fluoro-isonicotinamide], for which the Ki in assay [1] is below 20 nM. In assay [2], the IC50 was below 20 nM.
As for `Cc1nc(-c2c(Cl)c3cc(Cl)ccc3n2-c2ccc(CNC(=O)C3(NC(=O)c4cc(C5CC5)on4)CC3)cc2)no1` [Example 75, 5-Cyclopropyl-isoxazole-3-carboxylic acid (1-{4-[3,5-dichloro-2-(5-methyl-[1,2,4]oxadiazol-3-yl)-indol-1-yl]-benzylcarbamoyl}-cyclopropyl)-amide], the Ki in assay [1] is below 20 nM. Moreover, in assay [2], the IC50 was below 20 nM.
Consider `Cc1nc(-c2c(Cl)c3cc(Cl)ccc3n2-c2ccc(CNC(=O)C3(NC(=O)c4cncc(C(F)(F)F)c4)CC3)cc2)no1` [Example 76, N-(1-{4-[3,5-Dichloro-2-(5-methyl-[1,2,4]oxadiazol-3-yl)-indol-1-yl]-benzylcarbamoyl}-cyclopropyl)-5-trifluoromethyl-nicotinamide], for which the Ki in assay [1] was below 20 nM. In addition, the IC50 in assay [2] is below 20 nM.
For `CSc1ncc(C(=O)NC2(C(=O)NCc3ccc(-n4c(-c5noc(C)n5)c(Cl)c5ccccc54)cc3)CC2)cn1` [Example 77, 2-Methylsulfanyl-pyrimidine-5-carboxylic acid (1-{4-[3-chloro-2-(5-methyl-[1,2,4]oxadiazol-3-yl)-indol-1-yl]-benzylcarbamoyl}-cyclopropyl)-amide], the Ki in assay [1] is below 20 nM. In addition, the IC50 in assay [2] was below 20 nM.
As for `COc1ccc2c(c1)cc(-c1nc(C)no1)n2-c1ccc(CNC(=O)C2(NC(=O)CC(F)(F)F)CC2)cc1` [Example 78, 1-(3,3,3-Trifluoro-propionylamino)-cyclopropanecarboxylic acid 4-[5-methoxy-2-(3-methyl-[1,2,4]oxadiazol-5-yl)-indol-1-yl]-benzylamide], the Ki in assay [1] is below 20 nM. Further, the IC50 in assay [2] is below 20 nM.
`COc1ccc2c(c1)cc(-c1nc(C)no1)n2-c1ccc(CNC(=O)C2(NC(=O)c3cncc(C(F)(F)F)c3)CC2)cc1` [Example 79, N-(1-{4-[5-Methoxy-2-(3-methyl-[1,2,4]oxadiazol-5-yl)-indol-1-yl]-benzylcarbamoyl}-cyclopropyl)-5-trifluoromethyl-nicotinamide]: in assay [1], the Ki is below 20 nM. For the same compound, the IC50 in assay [2] is below 20 nM.
For the compound `COc1ccc2c(c1)cc(-c1nc(C)no1)n2-c1ccc(CNC(=O)C2(NC(=O)c3cc(OC)no3)CC2)cc1` [Example 80, 3-Methoxy-isoxazole-5-carboxylic acid (1-{4-[5-methoxy-2-(3-methyl-[1,2,4]oxadiazol-5-yl)-indol-1-yl]-benzylcarbamoyl}-cyclopropyl)-amide], the Ki in assay [1] was below 20 nM. Further, the IC50 in assay [2] is below 20 nM.
For the compound `Cc1nc(-c2cc3ccccc3n2-c2ccc(CNC(=O)C3(NC(=O)CC(F)(F)F)CC3)cc2)no1` [Example 81, 1-(3,3,3-Trifluoro-propionylamino)-cyclopropanecarboxylic acid 4-[2-(5-methyl-[1,2,4]oxadiazol-3-yl)-indol-1-yl]-benzylamide], the Ki in assay [1] is below 20 nM. Besides, in assay [2], the IC50 was below 20 nM.
With `Cc1nc(-c2cc3ccccc3n2-c2ccc(CNC(=O)C3(NC(=O)c4cncc(C(F)(F)F)c4)CC3)cc2)no1` [Example 82, N-(1-{4-[2-(5-Methyl-[1,2,4]oxadiazol-3-yl)-indol-1-yl]-benzylcarbamoyl}-cyclopropyl)-5-trifluoromethyl-nicotinamide], the Ki in assay [1] was below 20 nM. Moreover, the IC50 in assay [2] is below 20 nM.
Consider `Cc1noc(-c2cc3ccccc3n2-c2ccc(CNC(=O)C3(NC(=O)c4cncc(C(F)(F)F)c4)CC3)cc2)n1` [Example 83, N-(1-{4-[2-(3-Methyl-[1,2,4]oxadiazol-5-yl)-indol-1-yl]-benzylcarbamoyl}-cyclopropyl)-5-trifluoromethyl-nicotinamide], for which the Ki in assay [1] was below 20 nM. Also, the IC50 in assay [2] was below 20 nM.
For the compound `N#Cc1cc2ccccc2n1-c1ccc(CNC(=O)C2(NC(=O)c3cncc(C(F)(F)F)c3)CC2)cc1` [Example 84, N-{1-[4-(2-Cyano-indol-1-yl)-benzylcarbamoyl]-cyclopropyl}-5-trifluoromethyl-nicotinamide], in assay [1], the Ki was below 20 nM. Besides, the IC50 in assay [2] is below 20 nM.
With `Cc1nc(-c2c(Cl)c3cc(F)ccc3n2-c2ccc(CNC(=O)C3(NC(=O)c4cccnc4Cl)CC3)cc2)no1` [Example 85, 2-Chloro-N-(1-{4-[3-chloro-5-fluoro-2-(5-methyl-[1,2,4]oxadiazol-3-yl)-indol-1-yl]-benzylcarbamoyl}-cyclopropyl)-nicotinamide], the Ki in assay [1] was below 20 nM. The IC50 in assay [2] is below 20 nM.
As for `Cc1nc(-c2c(Cl)c3cc(F)ccc3n2-c2ccc(CNC(=O)C3(NC(=O)c4cccc(F)c4)CC3)cc2)no1` [Example 86, N-(1-{4-[3-Chloro-5-fluoro-2-(5-methyl-[1,2,4]oxadiazol-3-yl)-indol-1-yl]-benzylcarbamoyl}-cyclopropyl)-3-fluoro-benzamide], the Ki in assay [1] was below 20 nM. Besides, in assay [2], the IC50 is below 20 nM.
`Cc1cnc(C(=O)NC2(C(=O)NCc3ccc(-n4c(-c5noc(C)n5)c(Cl)c5cc(F)ccc54)cc3)CC2)cn1` [Example 87, 5-Methyl-pyrazine-2-carboxylic acid (1-{4-[3-chloro-5-fluoro-2-(5-methyl-[1,2,4]oxadiazol-3-yl)-indol-1-yl]-benzylcarbamoyl}-cyclopropyl)-amide]: in assay [1], the Ki was below 20 nM. Moreover, the IC50 in assay [2] was below 20 nM.
As for `Cc1cc(C(=O)NC2(C(=O)NCc3ccc(-n4c(-c5noc(C)n5)c(Cl)c5cc(F)ccc54)cc3)CC2)no1` [Example 88, 5-Methyl-isoxazole-3-carboxylic acid (1-{4-[3-chloro-5-fluoro-2-(5-methyl-[1,2,4]oxadiazol-3-yl)-indol-1-yl]-benzylcarbamoyl}-cyclopropyl)-amide], in assay [1], the Ki was below 20 nM. The IC50 in assay [2] is below 20 nM.
As for `Cc1nc(-c2c(Cl)c3cc(F)ccc3n2-c2ccc(CNC(=O)C3(NC(=O)c4ccnc(F)c4)CC3)cc2)no1` [Example 89, N-(1-{4-[3-Chloro-5-fluoro-2-(5-methyl-[1,2,4]oxadiazol-3-yl)-indol-1-yl]-benzylcarbamoyl}-cyclopropyl)-2-fluoro-isonicotinamide], in assay [1], the Ki is below 20 nM. Besides, in assay [2], the IC50 is below 20 nM.
Consider `Cc1nc(-c2c(Cl)c3cc(F)ccc3n2-c2ccc(CNC(=O)C3(NC(=O)c4cc(C5CC5)on4)CC3)cc2)no1` [Example 90, 5-Cyclopropyl-isoxazole-3-carboxylic acid (1-{4-[3-chloro-5-fluoro-2-(5-methyl-[1,2,4]oxadiazol-3-yl)-indol-1-yl]-benzylcarbamoyl}-cyclopropyl)-amide], for which the Ki in assay [1] was below 20 nM. The IC50 in assay [2] is below 20 nM.
As to `Cc1nc(-c2c(Cl)c3cc(F)ccc3n2-c2ccc(CNC(=O)C3(NC(=O)c4cncc(C(F)(F)F)c4)CC3)cc2)no1` [Example 91, N-(1-{4-[3-Chloro-5-fluoro-2-(5-methyl-[1,2,4]oxadiazol-3-yl)-indol-1-yl]-benzylcarbamoyl}-cyclopropyl)-5-trifluoromethyl-nicotinamide], the Ki in assay [1] was below 20 nM. For the same compound, in assay [2], the IC50 is below 20 nM.
Turning to `Cc1nc(-c2c(Cl)c3ccccc3n2-c2ccc(CNC(=O)C3(NC(=O)c4cccc(C(F)(F)F)c4F)CC3)cc2)no1` [Example 92, N-(1-{4-[3-Chloro-2-(5-methyl-[1,2,4]oxadiazol-3-yl)-indol-1-yl]-benzylcarbamoyl}-cyclopropyl)-2-fluoro-3-trifluoromethyl-benzamide], in assay [1], the Ki was below 20 nM. Further, the IC50 in assay [2] was below 20 nM.
